According to a melting point compilation (Tetko et al.; mined from patent text by program, amines drawn as free bases though some values may be those of a salt):

Structure (SMILES) | melting point [°C]
Cc1cc(NCc2ccc(-c3ccccc3-c3nnn(C(c4ccccc4)(c4ccccc4)c4ccccc4)n3)cc2)c(I)c(C)n1 | 209 to 211
CCOC(=O)c1cn(C)c2cnc3cc(F)c(N4CCC(O)(c5cccc(C(F)(F)F)c5)CC4)cc3c2c1=O | 262
Cc1ccc(S(=O)(=O)OCC2COc3ccc([N+](=O)[O-])c(N)c3O2)cc1 (stereo unspecified) | 155
CC(C)c1cc(NS(=O)(=O)c2cc(C3(O)CCC(=O)N3C)ccc2Cl)cc(C(C)C)c1O (stereo unspecified) | 198 to 200
O=c1c2c(nc3ccc(Br)cn13)C(=Cc1ccc(Cl)cc1)CC2 | 233 to 234
O=c1[nH]c2cc([N+](=O)[O-])sc2[nH]c1=O | > 300
Cc1ccc2c(c1)oc1c(C(N)=O)nn(-c3ccc(Cl)cc3Cl)c12 | 185 to 186
N#CCCCCn1c(=O)sc2c(=O)[nH]c(N)nc21 | 240 to 243
CCc1cccc(C)c1S(=O)(=O)c1nc[nH]n1 | 180 to 181
CCOC(OCC)c1cc(-n2c(=O)cc(C(F)(F)F)n(N)c2=O)ccc1Cl | 80 to 81
COc1cc2c(cc1OC)CCN=C2 | 185 to 187
CCC12CCC3c4ccc(OC)cc4CCC3C1CC(=CN(C)C)C2=O (stereo unspecified) | 157 to 159
CC(CO)(CO)Nc1ccc([N+](=O)[O-])cc1 | 120
CCC12CCC3C4CCC(=O)C=C4CCC3C1CCC2=O (stereo unspecified) | 156 to 158
N#CC1CN1C(=O)NC(=O)c1ccco1 (stereo unspecified) | 148 to 150
Cc1ccc(-c2cc(C(=O)/C=C/c3ccc(C(=O)O)cc3)cc3c2C(C)(C)CCC3(C)C)cc1 | 242
Clc1ccc(C2OC(c3ccncc3)=Nc3ccc(Cl)cc32)cc1 (stereo unspecified) | 140 to 141
FC(F)(F)c1n[nH]c(Cl)c1Cl | 58 to 60
CC(C)Nc1nc2cc(C#N)ccc2[nH]1 | 185 to 190
COC(=O)c1nc(Cl)c(Cl)c(N)c1I | 122 to 123
CC1(C)CCC(C)(C)c2ccccc21 | 71 to 72
O=C(C=Cc1ccc(-c2ccc(Cl)cc2)cc1)Nc1ccc(CN2CCCCC2)cc1 | 265 to 270
COc1cc2c(cc1OC)CN(c1nc(N)c3cc(OC)c(OC)cc3n1)C2 | 264 to 266

Now from value to compound:

melting point [°C] | Structure (SMILES)
110 to 111 | Cc1cccc(-c2nc(CCOc3ccc(/C=C/C=O)cc3)c(C)o2)c1
138 to 139 | COc1ccc(S(=O)(=O)c2c(C(C)C)nn3ccccc23)cc1
147 to 149 | Cc1ccc(/C=C/C(=O)Nc2cccc(NC(=N)c3ccccc3)c2)cc1
226 to 228 | Cc1c2sc3ccccc3nc-2c2c(O)cccc2c1=O
125 to 130 | C[C@@H](n1cnc2cc(S(=O)(=O)c3ccccc3)ccc2c1=O)[C@](O)(Cn1cncn1)c1ccc(F)cc1F
102 to 106 | COc1ccc(-c2ccccc2)cc1[N+]([O-])=NC(=O)OC(C)C
168 to 170 | O=C(O)COc1nc2ccccc2s1
125 | CCC=Cc1nc2ccccc2n1-c1cccc(C#N)c1C
185 to 187 | CC(C)c1cccc(C(C)C)c1NC(=O)C(N)Cc1c[nH]c2ccccc12 (stereo unspecified)
95 to 96 | Cc1cc(Cl)ccc1NC(=O)n1nc(Oc2cccc(C(F)(F)F)c2)cc1C
160 to 162 | NC(=O)c1ccc(-c2ccccc2OCC2CC2)[nH]c1=O
90 to 93 | O=C1c2ccccc2C(=O)N1CCCOc1cccc(CN2CCOCC2)c1
179 to 183 | N#CC(=Cc1ccc(C=Cc2ccccc2)cc1)S(=O)(=O)c1ccccc1
209 to 212 | O=C(Nc1ccccc1)C1=CNCCC1
114 to 116 | Cc1cc(C)cc(COC(=O)C(Cc2c[nH]c3ccccc23)NS(=O)(=O)c2ccccc2)c1 (stereo unspecified)
87 to 88 | CC(Cn1ccc(-c2ccccc2Cl)n1)C(=O)N(C)C (stereo unspecified)
99.1 | CCCCOc1ccc(-c2ncc(C(=O)OCC)cn2)cc1
116 to 117 | CN1C(=O)c2ccccc2CC1c1ccc(C(C)(C)C)cc1 (stereo unspecified)
